The series is described as follows: gradient 5% acetonitrile 3 min, to 50% in 2 min, to 85% in 15 min, held 3 min, 100 µL/min. Conditions: column: Zorbax Extend-C18 2.1 x 50 mm; eluents: water / acetonitrile, 0.1% formic acid. The method, boiled down:
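Using water and acetonitrile that each contained 0.1% formic acid, mixtures of ~100 pure standards were separated at 100 μL/min on a Zorbax Extend-C18 column (2.1 × 50 mm, 1.8 μm). The HPLC fed a quadrupole time-of-flight mass spectrometer working in positive and negative ionization mode, with dead and dwell volumes of 40 μL and 900 μL. Data were acquired over 3 months. Retention time was read from computationally picked adduct peaks after manual inspection of each.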
Take `Cc1nc(C)c(C(=O)N2CC(Oc3ccc(-c4nc(-c5ccccc5)no4)cc3)C2)s1`: the RP-LC retention time came to 1130 s.

As to `COc1ccc(-c2cc(C(=O)O)c3ccccc3n2)cc1OC`, the RP-LC retention time is 658 s.

Take `O=C(O)C(Cc1c[nH]c2ccccc12)N1C(=O)c2ccccc2C1=O` (configuration not stated): the RP-LC retention time was 858 s. Next, `CCOc1ccc(-c2cc3c(=O)n(Cc4nc(-c5ccc(C)c(C)c5)no4)ncn3n2)cc1`: 1260 s. In turn, `O=C(c1csc(-c2ccc(N3CCCC3)nc2)n1)N1CCCCC1` yielded an RP-LC retention time of 613 s. Take `Cc1csc(C(=O)Nc2nnc(SCC(=O)Nc3cccnc3)s2)c1`: the RP-LC retention time was determined as 597 s. For the compound `CCOC(=O)c1ccc(NC(=O)N2CCC(CN3CCOCC3)CC2)cc1`, the RP-LC retention time amounted to 610 s. `O=C(NC1CCCC1)c1ccc(Cn2nc(N3CCN(c4ccc(F)cc4)CC3)ccc2=O)o1` gave an RP-LC retention time of 853 s. Compound `Cc1cc(C)nc(NS(=O)(=O)c2ccc(Nc3nc(-c4ccc(F)c(C)c4)cs3)cc2)n1` showed an RP-LC retention time of 1000 s. Compound `COc1cc(OC)c(-n2nnc(-c3nsc(Nc4ccc(OC)c(OC)c4)n3)c2C)cc1Cl` came in with an RP-LC retention time of 928 s.

Turning to `CCN1CCN(c2nc3c(s2)CN(C(=O)CCC(C)C)CC3)CC1`, the RP-LC retention time stood at 614 s. `COCC(C)(O)CNC(=O)C(=O)NCCc1ccccc1` (configuration not stated) displayed an RP-LC retention time of 660 s. The figure for `COc1cc(OC)cc(-c2noc(CCn3nc(-c4ccc5c(c4)OCO5)ccc3=O)n2)c1` is 908 s; for `COC(=O)c1cc2c(=O)n(-c3cc(Cl)cc(Cl)c3)ccc2nc1C` it is 1010 s; for `Cc1ccc(-n2ncc3c(NCc4ccc5c(c4)OCO5)ncnc32)cc1` it is 939 s. Turning to `COc1cc(Cl)c(C)cc1NC(=O)Cc1nnc(-c2ccc3ncccc3c2)o1`, the RP-LC retention time was found to be 848 s. In the case of `O=C(NCC1CCCO1)c1ccc2c(c1)NC(=O)C1CCC(=O)N21` (configuration not stated), the RP-LC retention time amounted to 598 s. Next, `CN(C)C(=O)c1ccc2c(c1)nc(CN(C)C(=O)Nc1ccccc1Cl)n2C`: 611 s.

As to `COc1cccc(NC(=O)N2CCN(c3cc(C)nc(N4CCOCC4)n3)CC2)c1`, the RP-LC retention time amounted to 628 s. The figure for `O=C(NC(Cc1ccccc1)C(=O)N1CCN(c2ccccn2)CC1)c1cccc(Cl)c1` (configuration not stated) is 698 s; for `CN1C(=O)c2cccnc2Sc2cc(NC(=O)c3ccc(Cl)s3)ccc21` it is 870 s; for `O=C(c1ccc(OC(F)(F)F)cc1)N1CCN(c2cc(-c3ccc(Cl)cc3)[nH]n2)CC1` it is 991 s.

`O=C(CCNc1c(-c2ccccc2)nc2cnccn12)NCc1cccs1` gave an RP-LC retention time of 662 s.

As to `Cc1cc(OCC(=O)NCc2ccc3c(c2)OCO3)nc(N2CCCC(C)C2)n1` (configuration not stated), the RP-LC retention time turned out to be 671 s. Consider `COc1ccc(-n2ncc3c(=O)n(Cc4nc(-c5ccccc5C)no4)cnc32)cc1`, for which the RP-LC retention time was determined as 1060 s. In the case of `O=C(Cc1ccccc1Cl)NCCn1cnc(-c2ccccc2)cc1=O`, the RP-LC retention time is 715 s. The figure for `COc1ccccc1NC(=O)C1CCN(c2cc(N3CCSCC3)ncn2)CC1` is 684 s.

In the case of `CCOC(=O)c1c(S(=O)(=O)N2CCC(C(=O)Nc3ccc(Cl)cc3)CC2)c(C)n(C)c1C`, the RP-LC retention time was determined as 913 s. Consider `CCOC(=O)c1nc(Nc2cccc(SC)c2)c2ccccc2n1`, for which the RP-LC retention time was 940 s. Next, `O=C(NCc1csc(C2CCN(C(=O)Cc3ccc(Cl)cc3)CC2)n1)C1CCC1`: 784 s; `O=C(NCC1CCN(C(=O)c2cc3ccccc3o2)CC1)C(=O)NCC1CCCO1` (configuration not stated): 691 s; `CC(=O)c1cccc(NC(=O)C2CC(=O)N(c3ccc4c(c3)CCN4C(=O)C3CCC3)C2)c1` (configuration not stated): 760 s.

Values taken from the METLIN SMRT retention time set (Domingo-Almenara et al. 2019).
